Measurements from BindingDB's records for doi:10.1021/jm058013g (Universidad San Pablo Ceu, 2005).

What follows are compounds tested against Cyclin-dependent kinase 1/G2/mitotic-specific cyclin-B (Marthasterias glacialis, UniProt P15206+Q9DGD3) (assay: Kinase Inhibition Assay). Conditions: 30 °C.
Chain of Cyclin-dependent kinase 1/G2/mitotic-specific cyclin-B (Q9DGD3 whole entry): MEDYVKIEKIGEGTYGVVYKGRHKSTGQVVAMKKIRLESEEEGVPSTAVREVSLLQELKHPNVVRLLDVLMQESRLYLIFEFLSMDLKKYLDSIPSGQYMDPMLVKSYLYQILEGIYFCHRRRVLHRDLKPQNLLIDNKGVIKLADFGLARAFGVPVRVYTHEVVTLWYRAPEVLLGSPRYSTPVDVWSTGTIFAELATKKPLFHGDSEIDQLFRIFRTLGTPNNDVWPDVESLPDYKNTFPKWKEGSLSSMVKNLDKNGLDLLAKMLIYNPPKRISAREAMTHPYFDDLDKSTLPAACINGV
Chain of Cyclin-dependent kinase 1/G2/mitotic-specific cyclin-B (P15206 whole entry): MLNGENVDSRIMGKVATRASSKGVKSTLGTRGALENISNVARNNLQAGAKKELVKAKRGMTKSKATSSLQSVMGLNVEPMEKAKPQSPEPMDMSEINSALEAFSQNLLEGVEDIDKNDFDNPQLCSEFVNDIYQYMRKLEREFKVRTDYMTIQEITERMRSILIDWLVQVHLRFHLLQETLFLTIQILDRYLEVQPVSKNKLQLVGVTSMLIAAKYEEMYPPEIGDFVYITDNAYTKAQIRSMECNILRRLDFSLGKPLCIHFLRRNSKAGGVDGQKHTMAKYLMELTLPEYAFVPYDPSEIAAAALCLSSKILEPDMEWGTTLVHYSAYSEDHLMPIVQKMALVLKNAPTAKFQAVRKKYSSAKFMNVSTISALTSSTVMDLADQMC

Row | SMILES | IC50 [µM]
1 | Nc1nn(COCCO)c2nnc(-c3ccccc3)c(-c3ccccc3)c12 [2-[(3-Amino-4,5-diphenyl-1H-pyrazolo[3,4-c]pyridazin-1-yl)methoxy]ethanol] | > 50
2 | CC(=O)n1nc(N)c2c(-c3ccccc3)c(-c3ccccc3)nnc21 [1-{3-amino-4,5-diphenyl-1H-pyrazolo[3,4-c]pyridazin-1-yl}ethan-1-one] | > 50
3 | Oc1[nH]nc2nnc(-c3ccccc3)c(-c3ccccc3)c12 [4,5-diphenyl-1H-pyrazolo[3,4-c]pyridazin-3-ol] | > 50
4 | CC(=O)Nc1nn(C(C)=O)c2nnc(-c3ccccc3)c(-c3ccccc3)c12 [3-Acetamido-1-acetyl-4,5-diphenyl-1H-pyrazolo[3,4-c]-pyridazine] | > 50
5 | Nc1nn(CCOCCO)c2nnc(-c3ccccc3)c(-c3ccccc3)c12 [2-[2-(3-Amino-4,5-diphenyl-1H-pyrazolo[3,4-c]pyridazin-1-yl)ethoxy]ethanol] | > 50
6 | Nc1nn(Cc2ccccc2)c2nnc(-c3ccccc3)c(-c3ccccc3)c12 [3-Amino-1-benzyl-4,5-diphenyl-1H-pyrazolo[3,4-c]pyridazine] | > 50
7 | CC/N=C(\S)Nc1[nH]nc2nnc(-c3ccco3)cc12 [3-ethyl-1-[5-(furan-2-yl)-1H-pyrazolo[3,4-c]pyridazin-3-yl]thiourea] | > 50
8 | CC(=O)Nc1n[nH]c2nnc(-c3ccccc3)c(-c3ccccc3)c12 [N-{4,5-diphenyl-1H-pyrazolo[3,4-c]pyridazin-3-yl}acetamide] | > 50

Same assay, conditions: pH 7.2; 30 °C

Row | SMILES | IC50 [µM]
9 | COc1ccc(-c2nnc3[nH]nc(N)c3c2-c2ccc(OC)cc2)cc1 [3-Amino-4,5-bis(p-methoxyphenyl)-1H-pyrazolo[3,4-c]-pyridazine] | 15
10 | Nc1ccc(-c2nnc3[nH]nc(N)c3c2-c2ccc(N)cc2)cc1 [3-Amino-4,5-bis(p-aminophenyl)-1H-pyrazolo[3,4-c]-pyridazine] | > 50
11 | Nc1n[nH]c2nncc(-c3ccccc3)c12 [4-phenyl-1H-pyrazolo[3,4-c]pyridazin-3-amine] | > 50
12 | Nc1n[nH]c2nnc3c4ccccc4c4ccccc4c3c12 [17,18,20,21-tetraazapentacyclo[12.7.0.0^{2,7}.0^{8,13}.0^{15,19}]henicosa-1(21),2,4,6,8,10,12,14,16,19-decaen-16-amine] | > 50
13 | CC(C)(C)c1ccc(-c2nnc3[nH]nc(N)c3c2-c2ccc(C(C)(C)C)cc2)cc1 [4,5-bis(4-tert-butylphenyl)-1H-pyrazolo[3,4-c]pyridazin-3-amine] | > 50
14 | Cc1n[nH]c2nnc(N)c-2c1C [4,5-dimethyl-1H-pyrazolo[3,4-c]pyridazin-3-amine] | > 50
15 | Cc1n[nH]c2nnc(N)c-2c1-c1ccccc1 [5-methyl-4-phenyl-1H-pyrazolo[3,4-c]pyridazin-3-amine] | > 50
16 | Nc1n[nH]c2nnc(-c3ccc(C(F)(F)F)cc3)c(-c3ccc(C(F)(F)F)cc3)c12 [3-Amino-4,5-bis(p-trifluoromethylphenyl)-1H-pyrazolo-[3,4-c]pyridazine] | > 50
17 | Nc1n[nH]c2nnc(-c3ccccc3)cc12 [Pyrazolopyridazine deriv. 1n] | 4
18 | Nc1n[nH]c2nnc(-c3ccc(-c4ccccc4)cc3)c(-c3ccc(-c4ccccc4)cc3)c12 [3-Amino-4,5-bis(4-biphenyl)-1H-pyrazolo[3,4-c]pyridazine] | > 50
19 | Nc1n[nH]c2nnc(-c3ccccn3)c(-c3ccccn3)c12 [4,5-bis(pyridin-2-yl)-1H-pyrazolo[3,4-c]pyridazin-3-amine] | > 50
20 | Nc1n[nH]c2nnc(-c3ccc([N+](=O)[O-])cc3)c(-c3ccc([N+](=O)[O-])cc3)c12 [4,5-bis(4-nitrophenyl)-1H-pyrazolo[3,4-c]pyridazin-3-amine] | > 50
